The source of these data is PubChem BioAssay AID1053204 (The Scripps Research Institute Molecular Screening Center, 2014).

pIC50: −log10 of the molar value. The source made the active and inactive calls.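 The calls were made as follows: active = IC50 of 10 µM or lower; inactive = IC50 above 10 µM.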

The pIC50 is −log10 of the IC50, conventionally taken in molar units. As a reminder, the IC50 is the concentration needed to halve the response being measured.

The assay relates to T. brucei BSF 427 growth, AlamarBlue, 48 h. Description: growth inhibition of T. brucei bloodstream parasites, dose response, counter-screen for T. brucei MetRS inhibitor project, absorbance, assay provider, round 3 (AID 1053204). Background: The purpose of a counterscreen is to sort out artefacts and off-target activity.

In the case of `CCN(CC)C(=O)C(=O)c1cn(CCNc2cccc(C(F)(F)F)c2)c2ccccc12`, the pIC50 was 5.26.
For `CCN(CC)C(=O)Cc1cn(CC(=O)Nc2cccc(C(F)(F)F)c2)c2ccccc12`, the IC50 is > 10 µM (inactive).
Take `CCN(CC)C(=O)C(=O)c1cn(CC(=O)Nc2cc(Oc3ccccc3OC)cc(C(F)(F)F)c2)c2ccccc12`: the negative-log IC50 (pIC50) is 6.02.
Same read-out and setting: under `CCN(CC)C(=O)C(=O)c1cn(CC(=O)Nc2cc(Oc3ccc(F)cc3)cc(C(F)(F)F)c2)c2ccccc12` stands 5.85; under `O=C(Cc1ccc(Nc2nc3ccc(Br)cc3[nH]2)cc1)NCCc1cccs1`, 5.05.
With `CCN(CC)C(=O)C(=O)c1cn(CC(=O)Nc2cc(Oc3ccc(OC)cc3)cc(C(F)(F)F)c2)c2ccccc12`, the pIC50 is 6.08.
Same read-out and setting: under `CCN(CC)C(=O)C(=O)c1cn(CCNc2cc(Oc3ccccc3)cc(C(F)(F)F)c2)c2ccccc12` stands 5.39; under `CCN(CC)C(=O)C(=O)c1cn(CC(=O)Nc2cc(Oc3ccccc3F)cc(C(F)(F)F)c2)c2ccccc12`, 5.79.
Regarding `Nc1c(Cl)ncnc1Nc1ccc(C(=O)O)cc1`, the IC50 was > 10 µM (inactive).
As for `O=C(Cn1cc(C(=O)C(=O)NCc2ccccc2)c2ccccc21)Nc1cc(Oc2ccccc2)cc(C(F)(F)F)c1`, the pIC50 is 6.04.
